Source: patent publication US20250304535A1, “KAT6 Inhibitors” (BeiGene Switzerland GmbH, priority 2024, published 2025)

Experiments:
[1] = molecular target: Recombinant human KAT6B protein (657-1069) (Homo sapiens (Human), UniProt Q8WYB5); assay: KAT6B biochemical TR-FRET assay; conditions: histone H4 peptide 1000 nM, AcCoA 100 nM, enzyme 5 nM
[2] = tested on: histone H3K23 acetylation in U-2 OS cells; assay: Histone H3 lysine 23 acetylation assay in U-2 OS cells (high content analysis); type: cell-based; conditions: Homo sapiens, U2OS, 24 hrs exposure, H3K23ac level
Procedure, shortened: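 U-2 OS cells seeded overnight, then exposed 24 h to a 9-point compound dilution series; 0.1% DMSO medium as blank. Fixed, permeabilised, stained with anti-H3K23ac plus Alexa Fluor 647 secondary and DAPI; nuclear H3K23ac intensity read by high-content imaging. Inhibition = mean per-well cell intensity relative to on-plate blanks.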

[3] = molecular target: Recombinant human KAT6A protein (497-780) (Homo sapiens (Human), UniProt Q92794); assay: KAT6A biochemical TR-FRET assay; conditions: histone H4 peptide 2000 nM, AcCoA 300 nM, enzyme 5 nM
Sequence of Recombinant human KAT6A protein (497-780) (Q92794 497-780): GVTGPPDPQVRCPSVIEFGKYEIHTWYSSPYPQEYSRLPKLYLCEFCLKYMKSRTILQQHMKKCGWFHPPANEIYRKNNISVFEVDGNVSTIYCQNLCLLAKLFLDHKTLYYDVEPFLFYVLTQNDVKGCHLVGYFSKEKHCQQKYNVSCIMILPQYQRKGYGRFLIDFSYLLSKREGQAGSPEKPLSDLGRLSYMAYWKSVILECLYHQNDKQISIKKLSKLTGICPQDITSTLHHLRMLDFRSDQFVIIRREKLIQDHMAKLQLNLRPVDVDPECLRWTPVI

Sequence of Recombinant human KAT6B protein (657-1069) (Q8WYB5 657-1069): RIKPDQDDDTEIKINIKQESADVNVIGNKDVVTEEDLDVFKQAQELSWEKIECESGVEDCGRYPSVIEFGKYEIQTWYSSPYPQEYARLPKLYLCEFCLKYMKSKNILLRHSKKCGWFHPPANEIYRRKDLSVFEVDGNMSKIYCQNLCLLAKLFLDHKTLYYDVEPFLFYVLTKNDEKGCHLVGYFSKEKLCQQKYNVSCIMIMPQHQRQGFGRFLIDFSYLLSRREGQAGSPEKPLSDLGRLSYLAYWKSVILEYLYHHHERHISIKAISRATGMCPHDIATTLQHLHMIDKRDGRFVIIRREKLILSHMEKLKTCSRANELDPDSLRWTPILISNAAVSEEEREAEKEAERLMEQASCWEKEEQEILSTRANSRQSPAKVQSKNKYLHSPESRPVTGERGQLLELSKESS

SMILES: COc1cc(C(=O)NS(=O)(=O)c2c(OC)ccc3c2OCC3(C)C)ccc1Cn1cccn1 [Example C49, 4-((1H-pyrazol-1-yl)methyl)-3-methoxy-N-((6-methoxy-3,3-dimethyl-2,3-dihydrobenzofuran-7-yl)sulfonyl)benzamide]
- IC50 [1]: ≤ 5 nM
- IC50 [2]: ≤ 10 nM
- IC50 [3]: ≤ 5 nM

SMILES: [2H]C([2H])([2H])Oc1nc(C(=O)NS(=O)(=O)c2c(OC)ccc3c2OCC3(C)C)ccc1Cn1cccn1 [Example C64, 5-((1H-pyrazol-1-yl)methyl)-6-(methoxy-d3)-N-((6-methoxy-3,3-dimethyl-2,3-dihydrobenzofuran-7-yl)sulfonyl) picolinamide]
- IC50 [1]: ≤ 5 nM
- IC50 [2]: ≤ 10 nM
- IC50 [3]: ≤ 5 nM

SMILES: COc1cc2c(cc1S(=O)(=O)NC(=O)c1ccc(Cn3cccn3)c(OC)n1)C(C)(C)CO2 [Example C61, 5-((1H-pyrazol-1-yl)methyl)-6-methoxy-N-((6-methoxy-3,3-dimethyl-2,3-dihydrobenzofuran-5-yl)sulfonyl)picolinamide]
- IC50 [1]: ≤ 5 nM
- IC50 [2]: ≤ 10 nM
- IC50 [3]: ≤ 5 nM

SMILES: COc1ccc(C(C)(C)C)nc1S(=O)(=O)NC(=O)c1ccc(Cn2cccn2)c(CC(F)F)c1 [Example C31, 4-((1H-pyrazol-1-yl)methyl)-N-((6-(tert-butyl)-3-methoxypyridin-2-yl)sulfonyl)-3-(2,2-difluoroethyl)benzamide]
- IC50 [1]: ≤ 5 nM
- IC50 [2]: 10 to 100 nM
- IC50 [3]: ≤ 5 nM

SMILES: COc1ccc(C2COCCN2C)cc1S(=O)(=O)NC(=O)c1ccc(Cn2cccn2)c(OC)n1 (stereo not drawn) [Example C73, 5-((1H-pyrazol-1-yl)methyl)-6-methoxy-N-((2-methoxy-5-(4-methylmorpholin-3-yl)phenyl)sulfonyl) picolinamide]
- IC50 [1]: ≤ 5 nM
- IC50 [2]: ≤ 10 nM
- IC50 [3]: ≤ 5 nM

SMILES: COc1ccc2c(c1S(=O)(=O)NC(=O)c1ccc(Cn3cccn3)c(OC)n1)OCC2 [Example C58, 5-((1H-pyrazol-1-yl)methyl)-6-methoxy-N-((6-methoxy-2,3-dihydrobenzofuran-7-yl)sulfonyl)picolinamide]
- IC50 [1]: ≤ 5 nM
- IC50 [2]: ≤ 10 nM
- IC50 [3]: ≤ 5 nM

SMILES: COCC(C)(C)c1ccc(OC)c(S(=O)(=O)NC(=O)c2ccc(Cn3cccn3)c(OC)n2)c1 [Example C57, 5-((1H-pyrazol-1-yl)methyl)-6-methoxy-N-((2-methoxy-5-(1-methoxy-2-methylpropan-2-yl)phenyl)sulfonyl)picolinamide]
- IC50 [1]: ≤ 5 nM
- IC50 [2]: ≤ 10 nM
- IC50 [3]: ≤ 5 nM

SMILES: COc1ccc2c(c1S(=O)(=O)NC(=O)c1ccc(Cn3cccn3)c(C3CC3)n1)OCC2(C)C [Example C47, 5-((1H-pyrazol-1-yl)methyl)-6-cyclopropyl-N-((6-methoxy-3,3-dimethyl-2,3-dihydrobenzofuran-7-yl)sulfonyl)picolinamide]
- IC50 [1]: ≤ 5 nM
- IC50 [2]: ≤ 10 nM
- IC50 [3]: ≤ 5 nM

SMILES: COc1ccc(C(C)(C)C)cc1S(=O)(=O)NC(=O)c1ccc(Cn2cccn2)c(Br)c1 [Example C14, 4-((1H-pyrazol-1-yl)methyl)-3-bromo-N-((5-(tert-butyl)-2-methoxyphenyl)sulfonyl)benzamide]
- IC50 [1]: ≤ 5 nM
- IC50 [2]: ≤ 10 nM
- IC50 [3]: ≤ 5 nM

SMILES: COc1cc(C(=O)NS(=O)(=O)c2nc(C(C)(C)C)ccc2OC)ccc1Cc1ccccn1 [Example C32, N-((6-(tert-butyl)-3-methoxypyridin-2-yl)sulfonyl)-3-methoxy-4-(pyridin-2-ylmethyl)benzamide]
- IC50 [1]: ≤ 5 nM
- IC50 [2]: ≤ 10 nM
- IC50 [3]: ≤ 5 nM

SMILES: COc1ccc2c(c1S(=O)(=O)NC(=O)c1ccc(Cn3cccn3)c(OC)n1)OCC2(C)C [Example C43, 5-((1H-pyrazol-1-yl)methyl)-6-methoxy-N-((6-methoxy-3,3-dimethyl-2,3-dihydrobenzofuran-7-yl)sulfonyl)picolinamide]
- IC50 [1]: ≤ 5 nM
- IC50 [2]: ≤ 10 nM
- IC50 [3]: ≤ 5 nM

SMILES: COc1ccc2c(c1S(=O)(=O)NC(=O)c1ccc(Cn3cccn3)c(OC)n1)OC(C)(C)C2 [Example C42, 5-((1H-pyrazol-1-yl)methyl)-6-methoxy-N-((6-methoxy-2,2-dimethyl-2,3-dihydrobenzofuran-7-yl)sulfonyl)picolinamide]
- IC50 [1]: ≤ 5 nM
- IC50 [2]: ≤ 10 nM
- IC50 [3]: ≤ 5 nM

SMILES: COc1ccc(C2(C)COC2)cc1S(=O)(=O)NC(=O)c1ccc(Cn2cccn2)c(OC)n1 [Example C75, 5-((1H-pyrazol-1-yl)methyl)-6-methoxy-N-((2-methoxy-5-(3-methyloxetan-3-yl)phenyl)sulfonyl) picolinamide]
- IC50 [1]: ≤ 5 nM
- IC50 [2]: ≤ 10 nM
- IC50 [3]: ≤ 5 nM

SMILES: COc1ccc(C2(C)CCC2)cc1S(=O)(=O)NC(=O)c1ccc(Cn2cccn2)c(OC)n1 [Example C76, 5-((1H-pyrazol-1-yl)methyl)-6-methoxy-N-((2-methoxy-5-(1-methylcyclobutyl)phenyl)sulfonyl) picolinamide]
- IC50 [1]: ≤ 5 nM
- IC50 [2]: ≤ 10 nM
- IC50 [3]: ≤ 5 nM

SMILES: COc1ccc(C2(C(F)(F)F)CC2)cc1S(=O)(=O)NC(=O)c1ccc(Cn2cccn2)c(OC)n1 [Example C59, 5-((1H-pyrazol-1-yl)methyl)-6-methoxy-N-((2-methoxy-5-(1-(trifluoromethyl)cyclopropyl)phenyl)sulfonyl)picolinamide]
- IC50 [1]: ≤ 5 nM
- IC50 [2]: ≤ 10 nM
- IC50 [3]: ≤ 5 nM

SMILES: COc1ccc(C2(OC)CC2)cc1S(=O)(=O)NC(=O)c1ccc(Cn2cccn2)c(OC)n1 [Example C56, 5-((1H-pyrazol-1-yl)methyl)-6-methoxy-N-((2-methoxy-5-(1-methoxycyclopropyl)phenyl)sulfonyl)picolinamide]
- IC50 [1]: ≤ 5 nM
- IC50 [2]: ≤ 10 nM
- IC50 [3]: ≤ 5 nM

SMILES: COc1ccc(C(C)(C)C)cc1S(=O)(=O)NC(=O)c1ccc(Cc2ccccn2)c(C)n1 [Example C35, N-((5-(tert-butyl)-2-methoxyphenyl)sulfonyl)-6-methyl-5-(pyridin-2-ylmethyl)picolinamide]
- IC50 [1]: ≤ 5 nM
- IC50 [2]: ≤ 10 nM
- IC50 [3]: ≤ 5 nM

SMILES: COc1ccc(C(C)(C)C)cc1S(=O)(=O)NC(=O)c1ccc(Cn2cccn2)c(Br)c1F [Example C11, 4-((1H-pyrazol-1-yl)methyl)-3-bromo-N-((5-(tert-butyl)-2-methoxyphenyl)sulfonyl)-2-fluorobenzamide]
- IC50 [1]: ≤ 5 nM
- IC50 [2]: ≤ 10 nM
- IC50 [3]: ≤ 5 nM

SMILES: COc1ccc2c(c1S(=O)(=O)NC(=O)c1ccc(Cn3cccn3)c(OC)n1)OCC(C)(C)C2 [Example C55, 5-((1H-pyrazol-1-yl)methyl)-6-methoxy-N-((7-methoxy-3,3-dimethylchroman-8-yl)sulfonyl)picolinamide]
- IC50 [1]: ≤ 5 nM
- IC50 [2]: ≤ 10 nM
- IC50 [3]: ≤ 5 nM

SMILES: COc1ccc2c(c1S(=O)(=O)NC(=O)c1ccc(Cn3cccn3)c(OC)n1)OCCC2(C)C [Example C39, 5-((1H-pyrazol-1-yl)methyl)-6-methoxy-N-((7-methoxy-4,4-dimethylchroman-8-yl)sulfonyl)picolinamide]
- IC50 [1]: ≤ 5 nM
- IC50 [2]: ≤ 10 nM
- IC50 [3]: ≤ 5 nM

SMILES: COc1ccc(C(C)(C)C)nc1S(=O)(=O)NC(=O)c1ccc(Cn2ccc(N)n2)c(OC)n1 [Example C37, 5-((3-amino-1H-pyrazol-1-yl)methyl)-N-((6-(tert-butyl)-3-methoxypyridin-2-yl)sulfonyl)-6-methoxypicolinamide]
- IC50 [1]: ≤ 5 nM
- IC50 [2]: ≤ 10 nM
- IC50 [3]: ≤ 5 nM

SMILES: CCOc1nc(C(=O)NS(=O)(=O)c2nc(C(C)(C)C)ccc2OC)ccc1Cn1cccn1 [Example C34, 5-((1H-pyrazol-1-yl)methyl)-N-((6-(tert-butyl)-3-methoxypyridin-2-yl)sulfonyl)-6-ethoxy-picolinamide]
- IC50 [1]: ≤ 5 nM
- IC50 [2]: ≤ 10 nM
- IC50 [3]: ≤ 5 nM

SMILES: COc1ccc(C(C)(C)C)cc1S(=O)(=O)NC(=O)c1ccc(Cn2cccn2)c(N(C)C)c1 [Example C13, 4-((1H-pyrazol-1-yl)methyl)-N-((5-(tert-butyl)-2-methoxyphenyl)sulfonyl)-3-(dimethylamino)benzamide]
- IC50 [1]: ≤ 5 nM
- IC50 [2]: ≤ 10 nM
- IC50 [3]: ≤ 5 nM

SMILES: COc1ccc(C(C)(C)C)cc1S(=O)(=O)NC(=O)c1ccc(Cn2cccn2)c(C2CCO2)c1 (stereo not drawn) [Example C18, 4-((1H-pyrazol-1-yl)methyl)-N-((5-(tert-butyl)-2-methoxyphenyl)sulfonyl)-3-(oxetan-2-yl)benzamide]
- IC50 [1]: ≤ 5 nM
- IC50 [2]: ≤ 10 nM
- IC50 [3]: ≤ 5 nM

SMILES: COc1ccc(N2CCC(OC)CC2)cc1S(=O)(=O)NC(=O)c1ccc(Cn2cccn2)c(C2CC2)c1 [Example C17, 4-((1H-pyrazol-1-yl)methyl)-3-cyclopropyl-N-((2-methoxy-5-(4-methoxypiperidin-1-yl)phenyl)sulfonyl)benzamide]
- IC50 [1]: ≤ 5 nM
- IC50 [2]: 10 to 100 nM
- IC50 [3]: ≤ 5 nM

SMILES: COc1ccc(C23COC(C2)C3)cc1S(=O)(=O)NC(=O)c1ccc(Cn2cccn2)c(OC)n1 [Example C77, 5-((1H-pyrazol-1-yl)methyl)-N-((5-(2-oxabicyclo[2.1.1]hexan-4-yl)-2-methoxyphenyl)sulfonyl)-6-methoxypicolinamide]
- IC50 [1]: ≤ 5 nM
- IC50 [2]: ≤ 10 nM
- IC50 [3]: 5 to 50 nM
